Experiments:
[1] = Apparent intrinsic clearance in human liver microsomes; assay type: ADME; settings: read-out: CLH(app)
[2] = Lipophilicity, log D of the compound; assay type: physicochemical; settings: octanol/water
[3] = target: T1, Mineralocorticoid receptor (Homo sapiens, UniProt P08235); experiment: Displacement of [3H]aldosterone from GST-tagged human mineralocorticoid receptor ligand binding domain after 4 hrs by liquid scintillation counting
T1 sequence (P08235 whole entry): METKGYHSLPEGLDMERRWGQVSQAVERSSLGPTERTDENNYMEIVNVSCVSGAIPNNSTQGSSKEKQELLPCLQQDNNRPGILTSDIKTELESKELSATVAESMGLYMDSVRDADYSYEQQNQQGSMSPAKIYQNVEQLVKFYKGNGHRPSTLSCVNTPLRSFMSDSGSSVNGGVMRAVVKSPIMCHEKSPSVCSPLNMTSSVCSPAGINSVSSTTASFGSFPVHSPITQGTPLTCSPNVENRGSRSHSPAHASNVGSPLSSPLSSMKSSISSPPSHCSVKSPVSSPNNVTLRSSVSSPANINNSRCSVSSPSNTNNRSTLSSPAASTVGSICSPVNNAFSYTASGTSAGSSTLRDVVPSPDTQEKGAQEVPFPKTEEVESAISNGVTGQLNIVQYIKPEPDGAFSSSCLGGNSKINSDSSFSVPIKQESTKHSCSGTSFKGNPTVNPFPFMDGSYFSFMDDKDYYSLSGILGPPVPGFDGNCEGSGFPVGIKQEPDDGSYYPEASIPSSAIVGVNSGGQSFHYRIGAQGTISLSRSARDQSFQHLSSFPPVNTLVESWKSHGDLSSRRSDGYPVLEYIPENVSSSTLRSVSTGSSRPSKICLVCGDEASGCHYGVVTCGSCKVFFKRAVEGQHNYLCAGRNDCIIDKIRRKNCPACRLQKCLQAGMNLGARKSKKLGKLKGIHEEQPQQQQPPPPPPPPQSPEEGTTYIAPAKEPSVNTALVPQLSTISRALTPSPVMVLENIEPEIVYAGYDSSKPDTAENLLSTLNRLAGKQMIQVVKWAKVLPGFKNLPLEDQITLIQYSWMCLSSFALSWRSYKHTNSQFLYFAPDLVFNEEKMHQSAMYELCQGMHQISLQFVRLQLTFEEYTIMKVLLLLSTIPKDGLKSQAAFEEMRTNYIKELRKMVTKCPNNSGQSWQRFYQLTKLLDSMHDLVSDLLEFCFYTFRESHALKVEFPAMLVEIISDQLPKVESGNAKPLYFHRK

[4] = target: T1, Mineralocorticoid receptor; experiment: Antagonist activity at human mineralocorticoid receptor ligand binding domain expressed in human Huh7 cells after 16 hrs by luciferase reporter gene assay in absence of serum; assay type: cell-based, Huh-7
[5] = target: T2, CYP1A2 (Homo sapiens, UniProt P05177); experiment: Inhibition of CYP1A2 (unknown origin) at 3 uM; assay type: ADME
T2 sequence (P05177 whole entry): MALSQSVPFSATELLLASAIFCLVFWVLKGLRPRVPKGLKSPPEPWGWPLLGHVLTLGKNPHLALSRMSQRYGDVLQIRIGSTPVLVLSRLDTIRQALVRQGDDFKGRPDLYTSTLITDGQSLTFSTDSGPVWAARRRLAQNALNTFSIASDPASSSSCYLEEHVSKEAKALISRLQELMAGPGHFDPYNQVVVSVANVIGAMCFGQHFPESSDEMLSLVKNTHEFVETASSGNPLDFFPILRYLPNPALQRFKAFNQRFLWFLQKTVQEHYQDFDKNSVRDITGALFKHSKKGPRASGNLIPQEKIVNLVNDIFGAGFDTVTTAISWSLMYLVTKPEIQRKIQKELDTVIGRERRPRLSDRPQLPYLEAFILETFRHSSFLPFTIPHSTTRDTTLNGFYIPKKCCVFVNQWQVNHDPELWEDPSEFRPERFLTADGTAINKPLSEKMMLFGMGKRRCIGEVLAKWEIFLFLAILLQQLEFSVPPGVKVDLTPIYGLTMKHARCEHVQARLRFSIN

[6] = target: CYP2C9 (Homo sapiens, UniProt P11712); experiment: Inhibition of CYP2C9 (unknown origin) at 3 uM; assay type: ADME
[7] = target: CYP3A4 (Homo sapiens, UniProt P08684); experiment: Inhibition of CYP3A4 (unknown origin) at 3 uM; assay type: ADME
[8] = target: CYP2D6 (Homo sapiens, UniProt P10635); experiment: Inhibition of CYP2D6 (unknown origin) at 3 uM; assay type: ADME
[9] = system: Hepatocyte; experiment: Apparent intrinsic clearance in human hepatocytes assessed per million cells; assay type: ADME, cell-based
[10] = Apparent permeability across dog RRCK cells; assay type: ADME, cell-based, Canis lupus familiaris, MDCKII-LE; settings: MDCK
[11] = target: T3, Androgen receptor (Homo sapiens, UniProt P10275); experiment: Antagonist activity at human androgen receptor ligand binding domain expressed in human Huh7 cells after 16 hrs by luciferase reporter gene assay; assay type: cell-based, Huh-7
T3 sequence (P10275 whole entry): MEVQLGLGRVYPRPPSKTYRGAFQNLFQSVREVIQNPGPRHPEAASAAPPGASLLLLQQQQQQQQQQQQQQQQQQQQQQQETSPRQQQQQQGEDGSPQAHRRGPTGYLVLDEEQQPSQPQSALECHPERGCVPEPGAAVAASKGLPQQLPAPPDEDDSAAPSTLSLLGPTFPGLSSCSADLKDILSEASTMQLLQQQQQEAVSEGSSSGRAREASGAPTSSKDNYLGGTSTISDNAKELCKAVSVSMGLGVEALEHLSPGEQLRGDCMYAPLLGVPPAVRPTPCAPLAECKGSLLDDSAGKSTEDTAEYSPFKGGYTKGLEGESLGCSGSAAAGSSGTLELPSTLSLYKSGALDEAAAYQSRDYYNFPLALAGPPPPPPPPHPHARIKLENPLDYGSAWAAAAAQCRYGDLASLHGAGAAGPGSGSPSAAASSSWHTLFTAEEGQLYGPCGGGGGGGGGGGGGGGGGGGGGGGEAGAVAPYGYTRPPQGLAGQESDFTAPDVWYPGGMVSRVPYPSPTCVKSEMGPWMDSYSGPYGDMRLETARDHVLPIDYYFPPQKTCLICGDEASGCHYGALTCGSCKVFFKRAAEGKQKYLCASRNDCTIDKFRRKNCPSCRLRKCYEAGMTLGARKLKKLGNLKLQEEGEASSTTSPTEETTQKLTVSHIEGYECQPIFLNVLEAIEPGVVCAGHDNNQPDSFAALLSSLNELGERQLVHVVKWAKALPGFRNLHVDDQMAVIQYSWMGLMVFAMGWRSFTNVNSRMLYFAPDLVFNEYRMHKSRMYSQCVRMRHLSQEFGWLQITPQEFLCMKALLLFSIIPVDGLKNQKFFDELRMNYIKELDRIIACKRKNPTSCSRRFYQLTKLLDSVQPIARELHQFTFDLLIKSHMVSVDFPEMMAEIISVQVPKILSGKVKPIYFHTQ

[12] = target: T1, Mineralocorticoid receptor; experiment: Antagonist activity at human mineralocorticoid receptor ligand binding domain expressed in human Huh7 cells after 16 hrs by luciferase reporter gene assay in presence of serum; assay type: cell-based, Huh-7
[13] = target: T4, Glucocorticoid receptor (Homo sapiens, UniProt P04150); experiment: Displacement of [3H]dexamethasone from GST-tagged human glucocorticoid receptor ligand binding domain after 4 hrs by liquid scintillation counting
T4 sequence (P04150 whole entry): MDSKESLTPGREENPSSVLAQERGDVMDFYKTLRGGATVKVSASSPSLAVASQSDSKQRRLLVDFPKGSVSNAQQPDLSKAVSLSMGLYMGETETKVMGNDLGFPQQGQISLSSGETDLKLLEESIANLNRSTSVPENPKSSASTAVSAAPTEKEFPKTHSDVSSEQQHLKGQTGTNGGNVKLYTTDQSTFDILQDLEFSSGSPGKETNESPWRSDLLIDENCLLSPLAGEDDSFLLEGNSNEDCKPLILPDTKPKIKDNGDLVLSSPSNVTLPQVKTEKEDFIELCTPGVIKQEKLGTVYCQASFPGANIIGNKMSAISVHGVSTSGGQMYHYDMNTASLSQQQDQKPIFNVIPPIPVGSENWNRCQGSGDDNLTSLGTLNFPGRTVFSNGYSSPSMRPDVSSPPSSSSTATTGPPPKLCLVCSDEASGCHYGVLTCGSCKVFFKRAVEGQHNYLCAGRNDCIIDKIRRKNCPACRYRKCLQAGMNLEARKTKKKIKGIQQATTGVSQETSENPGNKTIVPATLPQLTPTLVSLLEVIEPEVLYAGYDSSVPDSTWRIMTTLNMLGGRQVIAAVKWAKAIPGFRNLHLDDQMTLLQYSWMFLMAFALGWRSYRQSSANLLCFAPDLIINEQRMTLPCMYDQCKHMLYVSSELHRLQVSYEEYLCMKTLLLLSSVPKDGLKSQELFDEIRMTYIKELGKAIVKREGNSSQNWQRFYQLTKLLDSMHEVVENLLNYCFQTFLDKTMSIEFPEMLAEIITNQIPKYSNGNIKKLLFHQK

[14] = target: T5, Progesterone receptor (Homo sapiens, UniProt P06401); experiment: Displacement of [3H]progesterone from human His-progesterone receptor B after 4 hrs by liquid scintillation counting
T5 sequence (P06401 whole entry): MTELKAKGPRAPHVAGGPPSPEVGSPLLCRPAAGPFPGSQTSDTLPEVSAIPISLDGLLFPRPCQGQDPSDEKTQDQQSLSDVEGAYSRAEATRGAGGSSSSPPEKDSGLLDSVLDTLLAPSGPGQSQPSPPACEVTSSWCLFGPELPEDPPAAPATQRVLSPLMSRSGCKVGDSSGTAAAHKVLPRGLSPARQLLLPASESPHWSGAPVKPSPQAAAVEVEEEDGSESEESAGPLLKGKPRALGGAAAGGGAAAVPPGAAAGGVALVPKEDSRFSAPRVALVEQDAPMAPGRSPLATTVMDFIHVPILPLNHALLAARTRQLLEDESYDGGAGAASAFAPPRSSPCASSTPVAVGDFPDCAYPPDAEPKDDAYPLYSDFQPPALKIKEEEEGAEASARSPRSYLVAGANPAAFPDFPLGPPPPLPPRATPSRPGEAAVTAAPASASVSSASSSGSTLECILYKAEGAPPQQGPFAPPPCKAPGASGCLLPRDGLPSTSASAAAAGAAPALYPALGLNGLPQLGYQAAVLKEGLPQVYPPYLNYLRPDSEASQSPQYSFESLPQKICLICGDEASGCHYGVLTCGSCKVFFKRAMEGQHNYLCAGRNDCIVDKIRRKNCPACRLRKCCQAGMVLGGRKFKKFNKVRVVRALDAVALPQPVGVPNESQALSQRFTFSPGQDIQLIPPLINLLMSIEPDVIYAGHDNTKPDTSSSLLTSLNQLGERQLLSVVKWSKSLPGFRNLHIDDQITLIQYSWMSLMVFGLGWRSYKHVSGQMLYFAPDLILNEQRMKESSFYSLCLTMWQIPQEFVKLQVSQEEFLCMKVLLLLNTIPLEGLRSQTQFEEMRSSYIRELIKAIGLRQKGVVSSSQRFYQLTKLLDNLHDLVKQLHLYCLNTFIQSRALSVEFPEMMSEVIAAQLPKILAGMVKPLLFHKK

Sequence of CYP2D6 (P10635 whole entry): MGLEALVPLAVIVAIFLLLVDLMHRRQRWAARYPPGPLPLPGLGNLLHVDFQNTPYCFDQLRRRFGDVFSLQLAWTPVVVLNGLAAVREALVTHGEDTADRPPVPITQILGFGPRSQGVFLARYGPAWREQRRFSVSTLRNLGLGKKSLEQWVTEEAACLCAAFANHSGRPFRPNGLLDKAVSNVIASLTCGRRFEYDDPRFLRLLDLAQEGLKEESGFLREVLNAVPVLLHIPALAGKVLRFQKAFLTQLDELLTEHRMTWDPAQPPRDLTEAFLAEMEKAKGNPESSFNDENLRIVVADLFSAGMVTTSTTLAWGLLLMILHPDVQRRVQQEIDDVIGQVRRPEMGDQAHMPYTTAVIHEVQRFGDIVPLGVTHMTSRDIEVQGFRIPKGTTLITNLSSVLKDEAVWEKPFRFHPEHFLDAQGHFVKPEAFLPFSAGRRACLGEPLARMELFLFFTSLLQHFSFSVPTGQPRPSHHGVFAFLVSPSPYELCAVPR
Sequence of CYP3A4 (P08684 whole entry): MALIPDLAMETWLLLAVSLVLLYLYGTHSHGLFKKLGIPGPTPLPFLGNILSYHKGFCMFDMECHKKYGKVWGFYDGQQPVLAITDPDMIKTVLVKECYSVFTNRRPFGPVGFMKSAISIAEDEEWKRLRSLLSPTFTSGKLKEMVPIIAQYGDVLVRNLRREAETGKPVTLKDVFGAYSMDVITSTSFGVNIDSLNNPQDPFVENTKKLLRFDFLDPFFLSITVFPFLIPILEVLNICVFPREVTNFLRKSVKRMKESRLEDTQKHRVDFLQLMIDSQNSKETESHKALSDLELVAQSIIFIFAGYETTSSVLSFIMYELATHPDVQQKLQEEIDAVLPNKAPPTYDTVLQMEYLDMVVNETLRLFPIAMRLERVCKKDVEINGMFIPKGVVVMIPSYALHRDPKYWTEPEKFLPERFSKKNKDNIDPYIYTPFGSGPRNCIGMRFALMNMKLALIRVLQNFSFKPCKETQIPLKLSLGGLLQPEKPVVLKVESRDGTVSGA
Sequence of CYP2C9 (P11712 whole entry): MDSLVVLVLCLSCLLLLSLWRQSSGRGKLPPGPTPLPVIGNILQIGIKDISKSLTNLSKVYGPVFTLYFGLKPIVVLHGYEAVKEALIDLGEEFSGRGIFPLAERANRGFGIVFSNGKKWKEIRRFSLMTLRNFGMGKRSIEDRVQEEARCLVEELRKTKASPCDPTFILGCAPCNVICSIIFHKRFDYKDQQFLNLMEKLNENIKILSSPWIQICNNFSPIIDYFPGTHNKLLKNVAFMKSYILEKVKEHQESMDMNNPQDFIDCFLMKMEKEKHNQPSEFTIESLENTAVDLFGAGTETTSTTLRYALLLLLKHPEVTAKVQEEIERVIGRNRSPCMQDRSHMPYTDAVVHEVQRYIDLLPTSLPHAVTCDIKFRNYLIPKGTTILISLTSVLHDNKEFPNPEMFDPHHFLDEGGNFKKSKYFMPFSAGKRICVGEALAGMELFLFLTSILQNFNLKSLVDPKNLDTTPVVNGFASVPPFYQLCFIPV

| microsomal CLint [1] [µL/min/mg] | logD [2] | IC50 [3] [nM] | SMILES | other results |
| --- | --- | --- | --- | --- |
| 203 | 4.1 | 356 | Cc1noc(C)c1S(=O)(=O)NCc1ccc(-c2ccccc2)cc1 |  |
| 267 | 3.9 | 609 | Cc1noc(C)c1S(=O)(=O)NCc1ccc(-c2ccccc2)s1 |  |
|  | 3.3 | 40 | Cc1noc(C)c1S(=O)(=O)NCc1ccc(-c2cccc(C#N)c2)cc1 |  |
| 198 | 3.2 | 45 | COc1ccc(C#N)cc1-c1ccc(CNS(=O)(=O)c2c(C)noc2C)cc1 |  |
|  | 2.4 | 2030 | Cc1noc(C)c1S(=O)(=O)NCc1ccc(-c2cccc(C(N)=O)c2)cc1 |  |
| 39 | 2.9 | 1390 | Cc1noc(C)c1S(=O)(=O)NCc1ccc(-c2cccc(NS(C)(=O)=O)c2)cc1 |  |
| 86 | 2.4 | 1530 | Cc1noc(C)c1S(=O)(=O)NCc1ccc(-c2cccnc2)cc1 |  |
| 25 | 1.9 | 1970 | Cc1noc(C)c1S(=O)(=O)NCc1ccc(-c2cncc(C#N)c2)cc1 |  |
| 17 | 1.5 | 4700 | Cc1noc(C)c1S(=O)(=O)NCc1ccc(-n2ccnc2C)cc1 |  |
| > 320 | 3.2 | 121 | Cc1cc(C)c(S(=O)(=O)NCc2ccc(-n3ccnc3C)cc2)c(C)c1 |  |
| 53 | 2.3 | 1210 | Cc1ccccc1S(=O)(=O)NCc1ccc(-n2ccnc2C)cc1 |  |
| 41 | 2 | 342 | Cc1nccn1-c1ccc(CNS(=O)(=O)c2ccccc2Cl)cc1 |  |
| 18 | 1.8 | 1840 | Cc1nccn1-c1ccc(CNS(=O)(=O)c2ccccc2F)cc1 |  |
| 28 | 2 | 2090 | Cc1nccn1-c1ccc(CNS(=O)(=O)c2ccc(F)cc2F)cc1 |  |
| 49 | 2.4 | 168 | Cc1nccn1-c1ccc(CNS(=O)(=O)c2cc(F)ccc2F)cc1F |  |

| SMILES | microsomal CLint [1] [µL/min/mg] | logD [2] | IC50 [3] [nM] | other results |
| --- | --- | --- | --- | --- |
| Cc1nccn1-c1ccc(CNS(=O)(=O)c2cc(F)ccc2F)cc1 | 30 | 2.1 | 627 |  |
| Cc1cn(-c2ccc(CNS(=O)(=O)c3cc(F)ccc3F)cc2)c(C)n1 | 27 | 2.3 | 191 | IC50 [4]: 556 nM; inhibition at 3 µM [5]: < 5%; inhibition at 3 µM [6]: < 5%; inhibition at 3 µM [7]: < 5%; inhibition at 3 µM [8]: < 5%; CLH(app) [9]: 9.6 µL/min; Papp [10]: 15.4 ×10⁻⁶ cm/s; IC50 [11]: > 10 µM; IC50 [12]: 1310 nM; IC50 [13]: 2190 nM; IC50 [14]: > 9.21 µM; Ki [3]: 113 nM |

Reference: ChEMBL document CHEMBL3085697, “Design and synthesis of aryl sulfonamide-based nonsteroidal mineralocorticoid receptor antagonists” (Bioorg Med Chem Lett, 2013)
